Measured values taken from ChEMBL document CHEMBL5665443, “Enzyme Inhibitor Single Concentration assay results for EUbOPEN Chemogenomics Library” (2024).

Columns and labels:
[1] = target: G/T mismatch-specific thymine DNA glycosylase (Homo sapiens) (UniProt Q13569); conditions: Hit No;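 also: human TDG cleavage of quenched duplex DNA oligonucleotides coupled to APE1, strand release read as fluorescence at 594 nm, inhibition of TDG activity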
Description: Inhibition of TDG by quantifying inhibition of TDG-mediated cleavage and dissociation of quenched duplex DNA oligonucleotides, measured as fluorescence at 594 nm. To generate a functional strand incision and increase turn-over this assay is coupled to APE1.

[2] = target: T1, Endonuclease III-like protein 1 (Homo sapiens) (UniProt P78549); conditions: Compound Concentration 10.0 uM, Hit No;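 also: enzyme assay tracking NTHL1 cutting and release of a quenched double-stranded DNA oligo substrate, read as fluorescence at 594 nm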
T1 sequence (whole entry): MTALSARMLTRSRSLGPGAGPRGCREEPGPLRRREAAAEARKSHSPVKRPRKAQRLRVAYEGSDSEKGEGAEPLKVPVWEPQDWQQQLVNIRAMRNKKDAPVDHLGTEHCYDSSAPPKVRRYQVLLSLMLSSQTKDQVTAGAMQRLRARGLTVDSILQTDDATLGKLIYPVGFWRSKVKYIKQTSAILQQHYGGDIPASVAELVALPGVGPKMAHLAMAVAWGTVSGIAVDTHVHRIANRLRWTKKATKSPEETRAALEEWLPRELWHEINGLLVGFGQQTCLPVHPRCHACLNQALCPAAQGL
Description: Inhibition of NTHL1 by quantifying inhibition of NTHL1-mediated cleavage and dissociation of quenched duplex DNA oligonucleotides, measured as fluorescence at 594 nm.

[3] = target: Endonuclease 8-like 1 (Homo sapiens) (UniProt Q96FI4); conditions: Hit No;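 also: fluorescence at 594 nm from quenched duplex DNA oligonucleotides released by NEIL1 cleavage and strand separation, reported as reduction of this enzyme activity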
Chain of Endonuclease 8-like 1 (Homo sapiens) (Q96FI4 whole entry): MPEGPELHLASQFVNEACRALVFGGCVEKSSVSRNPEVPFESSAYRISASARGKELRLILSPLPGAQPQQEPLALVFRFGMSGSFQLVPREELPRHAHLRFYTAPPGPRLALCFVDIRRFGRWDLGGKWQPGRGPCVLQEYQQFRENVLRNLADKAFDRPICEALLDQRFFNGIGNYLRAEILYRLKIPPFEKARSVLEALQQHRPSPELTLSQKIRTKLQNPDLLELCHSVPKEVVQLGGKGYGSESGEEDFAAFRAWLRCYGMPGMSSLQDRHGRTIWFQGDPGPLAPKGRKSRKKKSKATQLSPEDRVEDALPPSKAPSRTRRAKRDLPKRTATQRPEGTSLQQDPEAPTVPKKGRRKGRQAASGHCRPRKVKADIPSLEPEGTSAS
Description: Inhibition of NEIL1 by quantifying inhibition of NEIL1-mediated cleavage and dissociation of quenched duplex DNA oligonucleotides, measured as fluorescence at 594 nm.

[4] = target: T2, Endonuclease 8-like 2 (Homo sapiens) (UniProt Q969S2); conditions: Hit No;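 also: fluorescence at 594 nm reports NEIL2 cutting and release of a quenched double-stranded DNA oligo substrate, reduced signal read as inhibition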
T2 sequence (whole entry): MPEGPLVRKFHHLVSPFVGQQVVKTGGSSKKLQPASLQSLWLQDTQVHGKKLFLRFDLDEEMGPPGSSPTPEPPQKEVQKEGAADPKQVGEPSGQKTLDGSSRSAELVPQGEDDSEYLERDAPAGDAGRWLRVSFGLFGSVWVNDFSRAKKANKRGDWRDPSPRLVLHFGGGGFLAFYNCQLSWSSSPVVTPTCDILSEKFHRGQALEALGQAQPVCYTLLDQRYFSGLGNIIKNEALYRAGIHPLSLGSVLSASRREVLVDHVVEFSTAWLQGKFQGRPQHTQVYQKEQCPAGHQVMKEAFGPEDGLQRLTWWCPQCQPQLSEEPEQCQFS
Description: Inhibition of NEIL2 by quantifying inhibition of NEIL2-mediated cleavage and dissociation of quenched duplex DNA oligonucleotides, measured as fluorescence at 594 nm.

[5] = target: N-glycosylase/DNA lyase (Homo sapiens) (UniProt O15527); conditions: Hit No;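 also: OGG1 cleavage of a quenched duplex DNA oligonucleotide, coupled to APE1 for strand incision, read as fluorescence at 594 nm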
Chain of N-glycosylase/DNA lyase (Homo sapiens) (O15527 whole entry, the tested form may be a part): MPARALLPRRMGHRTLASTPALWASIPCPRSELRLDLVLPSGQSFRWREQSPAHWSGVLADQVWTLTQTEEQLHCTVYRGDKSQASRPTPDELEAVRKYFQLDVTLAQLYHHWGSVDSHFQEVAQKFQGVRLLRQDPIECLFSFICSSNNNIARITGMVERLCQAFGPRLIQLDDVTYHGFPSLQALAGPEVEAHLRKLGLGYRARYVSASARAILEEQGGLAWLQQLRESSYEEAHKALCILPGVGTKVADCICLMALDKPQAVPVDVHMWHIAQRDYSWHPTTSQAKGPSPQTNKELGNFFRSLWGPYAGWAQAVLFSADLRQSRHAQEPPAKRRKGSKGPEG
Description: Inhibition of OGG1 by quantifying inhibition of OGG1-mediated cleavage and dissociation of quenched duplex DNA oligonucleotides, measured as fluorescence at 594 nm. To generate a functional strand incision and increase turn-over this assay is coupled to APE1.

[6] = target: Methyl-CpG-binding domain protein 4 (Homo sapiens) (UniProt O95243); conditions: Hit No;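 also: MBD4 activity read as fluorescence at 594 nm from cleavage and release of a quenched duplex DNA oligonucleotide, with APE1 coupled to incise the strand and raise turnover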
Chain of Methyl-CpG-binding domain protein 4 (Homo sapiens) (O95243 whole entry, the tested form may be a part): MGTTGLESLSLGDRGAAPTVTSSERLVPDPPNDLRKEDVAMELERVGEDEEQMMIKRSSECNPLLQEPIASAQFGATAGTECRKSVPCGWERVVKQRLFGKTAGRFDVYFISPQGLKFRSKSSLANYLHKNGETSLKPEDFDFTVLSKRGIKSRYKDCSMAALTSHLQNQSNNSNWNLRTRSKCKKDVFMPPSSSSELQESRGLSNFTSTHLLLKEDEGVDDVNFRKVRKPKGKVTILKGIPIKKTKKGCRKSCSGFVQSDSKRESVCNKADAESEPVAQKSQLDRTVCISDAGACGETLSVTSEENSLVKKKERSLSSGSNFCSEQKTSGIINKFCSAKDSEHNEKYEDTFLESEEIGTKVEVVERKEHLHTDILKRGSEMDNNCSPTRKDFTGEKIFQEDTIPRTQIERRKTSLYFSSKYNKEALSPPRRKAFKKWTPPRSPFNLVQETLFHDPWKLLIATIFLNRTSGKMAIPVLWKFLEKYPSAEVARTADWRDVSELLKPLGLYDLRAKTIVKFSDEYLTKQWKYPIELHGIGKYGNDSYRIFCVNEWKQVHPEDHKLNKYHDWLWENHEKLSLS
Description: Inhibition of MBD4 by quantifying inhibition of MBD4-mediated cleavage and dissociation of quenched duplex DNA oligonucleotides, measured as fluorescence at 594 nm. To generate a functional strand incision and increase turn-over this assay is coupled to APE1.

[7] = target: T3, Single-strand selective monofunctional uracil DNA glycosylase (Homo sapiens) (UniProt Q53HV7); conditions: Hit No;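 also: enzymatic SMUG1 assay coupled with APE1, reading fluorescence at 594 nm released when a quenched double-stranded DNA oligonucleotide substrate is cleaved and separated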
T3 sequence (whole entry): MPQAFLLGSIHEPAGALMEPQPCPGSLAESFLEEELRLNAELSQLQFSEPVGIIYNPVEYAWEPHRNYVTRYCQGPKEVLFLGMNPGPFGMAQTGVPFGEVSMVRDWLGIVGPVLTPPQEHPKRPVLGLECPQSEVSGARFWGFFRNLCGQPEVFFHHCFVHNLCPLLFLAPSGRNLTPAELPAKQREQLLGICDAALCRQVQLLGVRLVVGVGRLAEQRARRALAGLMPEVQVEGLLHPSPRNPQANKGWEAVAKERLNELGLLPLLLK
Description: Inhibition of SMUG1 by quantifying inhibition of SMUG1-mediated cleavage and dissociation of quenched duplex DNA oligonucleotides, measured as fluorescence at 594 nm. To generate a functional strand incision and increase turn-over this assay is coupled to APE1.

[8] = target: Uracil-DNA glycosylase (Homo sapiens) (UniProt P13051); conditions: Hit No;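 also: UNG excision on a quenched double-stranded DNA oligo probe, with APE1 added for strand incision and turnover, read as fluorescence at 594 nm as strands separate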
Chain of Uracil-DNA glycosylase (Homo sapiens) (P13051 whole entry): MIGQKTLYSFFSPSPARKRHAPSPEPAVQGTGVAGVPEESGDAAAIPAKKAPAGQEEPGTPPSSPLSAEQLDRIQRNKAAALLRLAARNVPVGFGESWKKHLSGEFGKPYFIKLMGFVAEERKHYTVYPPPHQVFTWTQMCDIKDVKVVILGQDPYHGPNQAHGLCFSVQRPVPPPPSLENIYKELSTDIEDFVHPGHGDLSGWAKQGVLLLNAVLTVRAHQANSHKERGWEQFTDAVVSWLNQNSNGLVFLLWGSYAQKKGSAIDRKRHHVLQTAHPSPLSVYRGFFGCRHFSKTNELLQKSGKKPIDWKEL
Description: Inhibition of UNG by quantifying inhibition of UNG-mediated cleavage and dissociation of quenched duplex DNA oligonucleotides, measured as fluorescence at 594 nm. To generate a functional strand incision and increase turn-over this assay is coupled to APE1.

Chain of G/T mismatch-specific thymine DNA glycosylase (Homo sapiens) (Q13569 whole entry): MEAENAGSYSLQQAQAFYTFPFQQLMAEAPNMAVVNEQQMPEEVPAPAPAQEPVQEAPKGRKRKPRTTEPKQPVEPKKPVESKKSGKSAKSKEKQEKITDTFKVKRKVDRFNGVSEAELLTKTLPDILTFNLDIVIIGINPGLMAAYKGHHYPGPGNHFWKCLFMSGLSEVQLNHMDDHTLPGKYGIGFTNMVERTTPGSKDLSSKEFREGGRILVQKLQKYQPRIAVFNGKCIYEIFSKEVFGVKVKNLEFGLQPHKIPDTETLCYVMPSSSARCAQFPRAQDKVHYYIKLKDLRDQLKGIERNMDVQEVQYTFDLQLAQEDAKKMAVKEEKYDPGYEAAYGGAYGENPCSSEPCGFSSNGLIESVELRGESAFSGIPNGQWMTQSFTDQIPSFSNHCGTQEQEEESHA

Structure (SMILES)	inhibition ([1]; Compound Concentration 10.0 uM) [%]	inhibition [2] [%]	inhibition ([3]; Compound Concentration 10.0 uM) [%]	inhibition ([4]; Compound Concentration 10.0 uM) [%]	inhibition ([5]; Compound Concentration 10.0 uM) [%]	inhibition ([6]; Compound Concentration 10.0 uM) [%]	inhibition ([7]; Compound Concentration 10.0 uM) [%]	inhibition ([8]; Compound Concentration 10.0 uM) [%]	inhibition ([5]; Compound Concentration 1.0 uM) [%]	inhibition ([1]; Compound Concentration 1.0 uM) [%]	inhibition ([6]; Compound Concentration 1.0 uM) [%]	inhibition ([3]; Compound Concentration 1.0 uM) [%]	inhibition ([7]; Compound Concentration 1.0 uM) [%]	inhibition ([4]; Compound Concentration 1.0 uM) [%]	inhibition ([8]; Compound Concentration 1.0 uM) [%]
CC(C)Oc1ccc(-c2nc(-c3cccc4c3CC[C@@H]4NCCO)no2)cc1C#N	-9.98	1.19	-0.352	5.51	–	–	–	–	–	–	–	–	–	–	–
C[C@@H](c1cccc(C#N)c1)n1cc(Cl)cc(C(N)=O)c1=N	46.5	–	-4.99	12	1.26	67	9.26	3.37	–	–	–	–	–	–	–
Cc1c(Oc2ccc(F)cc2)c(OC(C)C)nn1-c1ccc(C2CC2)cn1	–	–	–	–	–	–	–	–	10.1	52	59	-5.44	8.77	1.55	0.0471
CN1C(=O)c2sccc2N(C)c2nc(Nc3ccc(S(N)(=O)=O)cc3)ncc21	–	–	–	–	–	–	–	–	5.53	40.8	27.4	-7.66	9.9	-6.76	-4.58
O=C(Nc1ccc(Oc2ccc(F)cc2)cc1)N1CCc2ncccc2[C@H]1c1ccc(F)cc1	–	–	–	–	–	–	–	–	-3.07	48.4	71	-9.68	3.93	-5.34	-3.31
C[C@@H]1CCNC(=O)c2cc3ccc(C(=O)Nc4nc5ccccc5n4CCCN(C)C)cc3n21	–	–	–	–	–	–	–	–	5.43	37.8	-2.92	3.44	22.7	-5.96	1.38
CCC(F)(F)c1cc(N2CCC(S(C)(=O)=O)CC2)nc2sc(C(N)=O)c(N)c12	39.1	–	-3.46	-1.2	-8.21	38.2	8.86	3.95	–	–	–	–	–	–	–
O=c1[nH]c(=O)c2nc3ccccc3nc2[nH]1	–	14.4	4.1	5.26	–	–	–	–	–	–	–	–	–	–	–
CCCCCCOc1cc2n(c(=O)n1)CCc1cc(OC)c(OC)cc1-2	–	-4.39	1.64	-5.45	–	–	–	–	–	–	–	–	–	–	–
O=C(NCCN1CCC(n2c(=O)[nH]c3cc(Cl)ccc32)CC1)c1ccc(F)cc1	-0.00915	-1.74	5.43	1.51	–	–	–	–	–	–	–	–	–	–	–
CN(C(=O)c1ccccc1)c1cc(N(C)c2ccc3c(c2)CCc2ccc(C(=O)NCCN4CCOCC4)cc2C3=O)ccc1F	–	3.6	-3.21	-1.45	-2.17	–	–	–	–	–	–	–	–	–	–
CC(=O)C1=C(C)N(c2cccc(C(F)(F)F)c2)C(=O)N[C@@H]1c1ccc(C#N)nc1	45.6	–	–	3.85	-1.15	51.4	-3.19	2.25	–	–	–	–	–	–	–
CSCC[C@H](NC(=O)[C@H](Cc1ccc(O)cc1)NC(=O)[C@H](CCCCN)NC(=O)[C@@H](N)Cc1c[nH]c2ccccc12)C(=O)N[C@H](C(=O)N[C@H](CCSC)C(N)=O)C(C)C	–	21.2	13.1	-4.17	–	–	–	-1.7	–	–	–	–	–	–	–
Cc1noc([C@H]2C[C@@H](c3ccc(C(F)(F)F)cc3)CN(C(=O)N3CCS(=O)(=O)C3)C2)n1	53.6	–	–	-5.59	1.56	42.2	5.39	-0.51	–	–	–	–	–	–	–
Cc1c(Cc2ccc3ccccc3n2)c2cc(F)ccc2n1CC(=O)O	–	-6.14	9.88	30.2	–	–	–	–	–	–	–	–	–	–	–
